What was measured:
[1] = molecular target: Focal adhesion kinase 1 (Homo sapiens, UniProt Q05397)
[2] = molecular target: T1, Tyrosine-protein kinase ITK/TSK (Homo sapiens, UniProt Q08881)
T1 sequence (Q08881 whole entry): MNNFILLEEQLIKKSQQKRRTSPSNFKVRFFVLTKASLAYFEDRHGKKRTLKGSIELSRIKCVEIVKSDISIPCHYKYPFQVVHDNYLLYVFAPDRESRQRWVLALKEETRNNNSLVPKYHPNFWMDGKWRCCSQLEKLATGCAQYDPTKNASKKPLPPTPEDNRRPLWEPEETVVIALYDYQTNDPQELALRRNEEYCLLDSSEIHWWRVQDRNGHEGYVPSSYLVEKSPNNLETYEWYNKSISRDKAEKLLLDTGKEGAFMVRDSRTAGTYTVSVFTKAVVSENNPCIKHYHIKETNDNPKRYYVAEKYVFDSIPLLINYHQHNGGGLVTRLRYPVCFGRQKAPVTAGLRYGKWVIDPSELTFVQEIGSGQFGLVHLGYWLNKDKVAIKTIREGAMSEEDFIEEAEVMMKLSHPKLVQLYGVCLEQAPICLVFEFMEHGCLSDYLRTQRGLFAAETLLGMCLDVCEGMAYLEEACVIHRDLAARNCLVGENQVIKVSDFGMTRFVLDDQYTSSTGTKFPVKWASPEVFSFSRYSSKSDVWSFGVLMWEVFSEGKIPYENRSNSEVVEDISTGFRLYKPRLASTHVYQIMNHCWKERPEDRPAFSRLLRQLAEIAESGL

[3] = molecular target: Epidermal growth factor receptor (Homo sapiens, UniProt P00533)
[4] = molecular target: T2, Cytoplasmic tyrosine-protein kinase BMX (Homo sapiens, UniProt P51813)
T2 sequence (P51813 whole entry): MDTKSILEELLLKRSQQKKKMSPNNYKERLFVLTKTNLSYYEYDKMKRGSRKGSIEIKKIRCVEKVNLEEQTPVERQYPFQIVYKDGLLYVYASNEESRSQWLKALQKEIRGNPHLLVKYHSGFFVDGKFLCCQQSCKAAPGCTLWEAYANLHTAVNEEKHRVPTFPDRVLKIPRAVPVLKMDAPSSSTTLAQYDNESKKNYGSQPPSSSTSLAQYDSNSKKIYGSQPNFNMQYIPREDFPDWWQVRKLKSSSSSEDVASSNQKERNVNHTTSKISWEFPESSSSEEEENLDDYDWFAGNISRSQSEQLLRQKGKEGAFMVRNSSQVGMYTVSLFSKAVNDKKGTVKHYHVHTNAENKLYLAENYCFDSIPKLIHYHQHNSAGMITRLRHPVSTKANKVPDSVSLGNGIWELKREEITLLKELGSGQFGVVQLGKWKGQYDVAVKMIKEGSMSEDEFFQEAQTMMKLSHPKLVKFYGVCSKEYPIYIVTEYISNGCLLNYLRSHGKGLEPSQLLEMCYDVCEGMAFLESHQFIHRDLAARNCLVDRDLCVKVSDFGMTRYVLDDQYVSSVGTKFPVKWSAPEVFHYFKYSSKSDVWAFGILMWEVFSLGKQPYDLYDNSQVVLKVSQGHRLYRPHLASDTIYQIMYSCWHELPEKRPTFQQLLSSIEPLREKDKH

Chain of Focal adhesion kinase 1 (Q05397 whole entry): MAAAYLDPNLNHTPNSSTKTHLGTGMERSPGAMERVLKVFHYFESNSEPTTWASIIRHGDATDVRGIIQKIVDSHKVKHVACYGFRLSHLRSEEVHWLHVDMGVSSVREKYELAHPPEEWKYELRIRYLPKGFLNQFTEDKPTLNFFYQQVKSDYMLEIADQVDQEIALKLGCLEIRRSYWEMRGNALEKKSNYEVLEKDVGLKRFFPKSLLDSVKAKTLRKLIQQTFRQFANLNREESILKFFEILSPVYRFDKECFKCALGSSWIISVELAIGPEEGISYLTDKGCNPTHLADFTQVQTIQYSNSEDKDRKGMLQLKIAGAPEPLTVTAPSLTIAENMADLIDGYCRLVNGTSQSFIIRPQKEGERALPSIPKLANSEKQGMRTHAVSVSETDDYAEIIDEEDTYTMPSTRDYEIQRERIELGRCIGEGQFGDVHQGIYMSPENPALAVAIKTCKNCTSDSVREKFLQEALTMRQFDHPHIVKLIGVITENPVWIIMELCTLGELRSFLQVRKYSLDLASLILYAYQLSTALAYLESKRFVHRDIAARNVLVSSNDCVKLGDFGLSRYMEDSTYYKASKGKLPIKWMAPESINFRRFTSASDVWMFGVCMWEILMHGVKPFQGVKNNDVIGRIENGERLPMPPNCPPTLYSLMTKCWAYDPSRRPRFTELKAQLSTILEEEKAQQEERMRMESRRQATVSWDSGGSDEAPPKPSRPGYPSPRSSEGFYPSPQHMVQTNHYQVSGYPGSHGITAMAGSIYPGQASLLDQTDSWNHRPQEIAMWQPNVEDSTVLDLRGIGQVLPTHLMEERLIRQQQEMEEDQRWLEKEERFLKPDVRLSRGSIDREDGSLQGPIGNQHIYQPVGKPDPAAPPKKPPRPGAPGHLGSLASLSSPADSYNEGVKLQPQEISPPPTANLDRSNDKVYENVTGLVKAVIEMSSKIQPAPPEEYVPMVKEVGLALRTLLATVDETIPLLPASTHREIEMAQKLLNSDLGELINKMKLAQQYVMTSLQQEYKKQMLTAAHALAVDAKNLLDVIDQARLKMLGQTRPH
Chain of Epidermal growth factor receptor (P00533 whole entry): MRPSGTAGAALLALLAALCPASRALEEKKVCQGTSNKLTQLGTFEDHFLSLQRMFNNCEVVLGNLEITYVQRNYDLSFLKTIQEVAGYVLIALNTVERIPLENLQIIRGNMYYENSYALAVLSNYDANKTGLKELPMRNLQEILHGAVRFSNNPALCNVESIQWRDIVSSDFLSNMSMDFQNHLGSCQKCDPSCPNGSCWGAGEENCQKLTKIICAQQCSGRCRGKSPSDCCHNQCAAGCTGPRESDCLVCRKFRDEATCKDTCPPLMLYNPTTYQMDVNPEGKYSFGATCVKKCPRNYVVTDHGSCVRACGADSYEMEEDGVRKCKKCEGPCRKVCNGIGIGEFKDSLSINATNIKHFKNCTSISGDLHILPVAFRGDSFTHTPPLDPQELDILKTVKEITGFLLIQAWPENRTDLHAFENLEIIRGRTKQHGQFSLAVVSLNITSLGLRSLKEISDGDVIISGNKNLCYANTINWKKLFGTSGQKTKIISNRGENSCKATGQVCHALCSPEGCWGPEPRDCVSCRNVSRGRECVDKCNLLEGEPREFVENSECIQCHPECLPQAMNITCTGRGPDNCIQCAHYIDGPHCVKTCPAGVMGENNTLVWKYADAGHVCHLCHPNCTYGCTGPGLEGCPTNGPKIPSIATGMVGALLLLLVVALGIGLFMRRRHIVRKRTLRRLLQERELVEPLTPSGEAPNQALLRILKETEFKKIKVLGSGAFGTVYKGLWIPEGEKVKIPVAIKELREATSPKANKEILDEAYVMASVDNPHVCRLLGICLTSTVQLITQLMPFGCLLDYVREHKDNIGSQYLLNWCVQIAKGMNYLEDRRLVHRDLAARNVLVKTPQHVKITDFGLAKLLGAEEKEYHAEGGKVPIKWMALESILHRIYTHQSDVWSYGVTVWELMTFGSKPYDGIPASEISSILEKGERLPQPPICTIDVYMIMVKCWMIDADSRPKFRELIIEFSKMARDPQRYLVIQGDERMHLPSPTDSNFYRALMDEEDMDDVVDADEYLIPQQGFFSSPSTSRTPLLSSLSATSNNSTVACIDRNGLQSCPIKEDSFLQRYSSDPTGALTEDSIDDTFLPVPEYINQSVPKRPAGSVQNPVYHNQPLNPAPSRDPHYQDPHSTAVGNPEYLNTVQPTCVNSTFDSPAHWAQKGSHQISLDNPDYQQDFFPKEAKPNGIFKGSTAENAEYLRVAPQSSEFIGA

Row | IC50 [1] | IC50 [2] | IC50 [3] | IC50 [4] | Compound
1 | > 100 nM | > 100 nM | > 100 nM | > 100 nM | C=CC(=O)Nc1ccccc1Nc1nc(Nc2ccc(OCCCOC3(CC)OCC(C)(C)CO3)cc2)ncc1F
2 | > 100 nM | > 100 nM | > 100 nM | < 100 nM | C=CC(=O)N1CCC[C@@H](Nc2nc(Nc3ccc(OCCCOC4(CC)OCC(C)(C)CO4)cc3)ncc2F)C1
